We go through four compounds from PubChem BioAssay AID1259408 (Genetic Toxicology Data Bank (GENE-TOX), 2018).

The test system of this data set is GENE-TOX genotoxicity assays, various organisms and cells. Description: GENE-TOX mutagenicity studies.
Setting [1] is: Species/Cell Type: Drosophila melanogaster, Assay Type: Sex-linked recessive lethal gene mutation, Assay Code: SRLT, Evaluation Type: Evaluation A (Pre-1980).

Structures are written as SMILES. Calls of active or inactive are those of the source. The rule behind the calls is not given here.

Regarding `O=c1[nH]c(=O)n([C@H]2C[C@H](O)[C@@H](CO)O2)cc1I`, the mutagenic call is, setting by setting: (Species/Cell Type: Arabidopsis species, Assay Type: Gene mutation, Assay Code: ARM-, Evaluation Type: Evaluation A (Pre-1980)) “inactive; negative”; under setting [1], “no conclusion”; (Species/Cell Type: Escherichia coli polA (W3119 vs P3478), Assay Type: Rec-assay, DNA effects (bacterial DNA repair), Assay Code: RE1T, Evaluation Type: Evaluation A (Pre-1980)) “no conclusion”; (Species/Cell Type: Human diploid fibroblasts, Assay Type: Unscheduled DNA synthesis (UDS) in vitro, DNA effects, Assay Code: UDH-, Evaluation Type: Evaluation A (Pre-1980)) “inactive; negative”; (Species/Cell Type: Human lymphocytes, Assay Type: Sister-chromatid exchange (SCE) in vitro, Assay Code: SCL+D, Dose Response: With dose response, Evaluation Type: Evaluation B (Post-1980)) “active; positive”; (Species/Cell Type: Human, Assay Type: Sister-chromatid exchange (SCE) in vitro, Assay Code: SC1+D, Dose Response: With dose response, Evaluation Type: Evaluation B (Post-1980)) “active; positive”. The mutagenic call (Species/Cell Type: Mammalian polychromatic erythrocytes, Assay Type: Micronucleus test, chromosome aberrations, Assay Code: MNTT, Evaluation Type: Evaluation A (Pre-1980)) is listed as “no conclusion”; the mutagenic call (Species/Cell Type: Mouse, Sex: Male, Assay Type: Sperm morphology, Assay Code: SPI+, Evaluation Type: Evaluation A (Pre-1980)) was “active; positive”; the mutagenic call (Species/Cell Type: Saccharomyces cerevisiae, Assay Type: Mitotic recombination or gene conversion, Assay Code: YEH-*, Activation: With metabolic activation, Evaluation Type: Evaluation A (Pre-1980)) is “inactive; negative”; the mutagenic call (Species/Cell Type: Salmonella typhimurium (one or more of the five standard strains: TA98, TA100, TA1535, TA1537, and TA1538), Assay Type: Histidine reverse gene mutation, Ames assay, Assay Code: SAL-, Evaluation Type: Evaluation A (Pre-1980)) is “inactive; negative”; the mutagenic call (Species/Cell Type: Salmonella typhimurium, Assay Type: Forward and reverse gene mutation, host-mediated assay, Assay Code: HMA-, Evaluation Type: Evaluation A (Pre-1980)) was “inactive; negative”; the mutagenic call (Species/Cell Type: Syrian hamster embryo (SA7/SHE) cells, Assay Type: Cell transformation, viral enhanced, Assay Code: CT7+, Evaluation Type: Evaluation A (Pre-1980)) was “active; positive”. Also, the mutagenic call (Species/Cell Type: Syrian hamster embryo (SHE) cells, Assay Type: Cell transformation, clonal assay, Assay Code: CTC-, Evaluation Type: Evaluation A (Pre-1980)) was “inactive; negative”.
For the compound `Oc1cccc2cc3ccc4cccc5ccc(c12)c3c45`, the call (Species/Cell Type: Nonhuman, Assay Type: In vivo carcinogenicity studies, Assay Code: CCGT, Evaluation Type: Evaluation A (Pre-1980)) is reported as “no conclusion”. Also, the mutagenic call (Species/Cell Type: Salmonella typhimurium (one or more of the five standard strains: TA98, TA100, TA1535, TA1537, and TA1538), Assay Type: Histidine reverse gene mutation, Ames assay, Assay Code: SALT, Evaluation Type: Evaluation A (Pre-1980)) is reported as “no conclusion”.
`Oc1cccc2ncccc12`: the mutagenic call (Species/Cell Type: Salmonella typhimurium (one or more of the five standard strains: TA98, TA100, TA1535, TA1537, and TA1538), Assay Type: Histidine reverse gene mutation, Ames assay, Assay Code: SAL+*, Activation: With metabolic activation, Evaluation Type: Evaluation A (Pre-1980)) is “active; positive”.
In the case of `Nc1ccc2nc3ccc(N)cc3[n+](-c3ccccc3)c2c1`, the mutagenic call under setting [1] is given as “no conclusion”.
